Data published in publication PMC6984337, “Targeting the Mycobacterium tuberculosis transpeptidase LdtMt2 with cysteine-reactive inhibitors including ebselen” (Chemical Communications (Cambridge, England), 2019).
Read-outs that look alike come from different tables or passages of the source.

Tests used:
LdtMt2 [1] = target: T1, LdtMt2 (Mycobacterium tuberculosis, UniProt I6Y9J2); assay: Fluorescence-based (fluorogenic probe 1) inhibition assay for LdtMt2; format: biochemical
LdtMt2 [2] = target: T1, LdtMt2; assay: High-throughput (RapidFire) protein mass spectrometry of covalent adduct formation with LdtMt2; format: biochemical; details: for time to complete reaction (adduct formation) with LdtMt2: LdtMt2 3 µM with two equivalents (6 µM) of inhibitor, 50 mM Tris pH 7.5; for stability of covalent complex with LdtMt2: after 24 hours, RapidFire MS
Experimental: Inhibition assays were performed in flat-bottomed 384-well μ-clear plates (Greiner Bio-One) with a final volume of 25 μL, and using 50 mM HEPES, pH 7.5 containing 0.01% (v/v) Triton X-100 as the assay buffer. LdtMt2 (100 nM) was treated with a range of inhibitor concentrations, and the mixture was incubated for 0, 10 or 60 minutes. Following this pre-incubation, fluorogenic probe 1 (25 μM)2 was added, and the mixture was incubated for a further 30 minutes. The fluorescence signal was then measured using a BMG Labtech PHERAstar FS with λex = 480 nm and λem = 520 nm using the bottom optic. All reactions were carried out in quadruplicate, and controls without inhibitor and without LdtMt2 were included. Inhibition results were normalised using the no inhibitor and no enzyme controls. Dose-response analysis was performed using Prism (GraphPad) with the log(inhibitor) vs normalized response -- variable slope model. Data points were plotted as mean average with the standard deviation as the […]
Mass spectrometric analyses were performed using an Agilent 6550 system equipped with a RapidFire sampler. Samples (100 µL) were prepared in 50 mM Tris, pH 7.5, consisting of 3 µM LdtMt2 and either 6 µM or 30 µM of the relevant inhibitor, as […]
Purified LdtMt2 Δ1-55 (approx. 1 mM; His-tag cleaved) in 50 mM Tris, pH 8.0, 100 mM NaCl was used for crystallography. Crystallisation trials were set up using the sitting drop vapour diffusion method with the JCSG+ broad screen (Molecular Dimensions). A structure of LdtMt2 Δ1-55 (PDB 6RLG) was solved using a crystal […]
Figure S3. MS analysis of the apparent covalent adducts formed with LdtMt2 and the cysteine-reactive inhibitors. […]
conditions used for mass spectrometry are described in the Experimental Details […]
(1 picture or pasted object on this page, not shown here)

[3] = IC50 (μM, mean ± SD) 10 min, 10 min pre-incubation prior to addition of fluorogenic probe 1, LdtMt2 100 nM, probe 1 25 μM
[4] = IC50 (μM, mean ± SD) 60 min, LdtMt2 100 nM, probe 1 25 μM
[5] = without pre-incubation prior to addition of fluorogenic probe 1, LdtMt2 100 nM, probe 1 25 μM, read-out: IC50 (μM, mean ± SD) 0 min

T1 sequence (I6Y9J2 56-408): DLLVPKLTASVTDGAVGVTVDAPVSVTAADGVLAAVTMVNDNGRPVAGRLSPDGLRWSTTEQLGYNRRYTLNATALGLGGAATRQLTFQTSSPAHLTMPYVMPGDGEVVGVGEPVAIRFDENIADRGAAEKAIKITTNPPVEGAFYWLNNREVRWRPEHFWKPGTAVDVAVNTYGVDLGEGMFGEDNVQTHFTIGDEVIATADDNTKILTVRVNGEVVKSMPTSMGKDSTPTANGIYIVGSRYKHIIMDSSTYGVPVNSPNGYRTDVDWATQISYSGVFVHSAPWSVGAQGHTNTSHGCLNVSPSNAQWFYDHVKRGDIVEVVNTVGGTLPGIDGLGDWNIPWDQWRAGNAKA

Structure (SMILES) | IC50 (LdtMt2 [1]; [3]) [µM] | IC50 (LdtMt2 [1]; [4]) [µM] | IC50 (LdtMt2 [1]; [5]) [µM] | time to complete reaction (adduct formation) with LdtMt2 (LdtMt2 [2]) [min] | further results
Br[Se]c1ccccc1 [Compound 5, PhSeBr] | 5.05 ± 0.35 | 2.02 ± 0.61 | 11.8 ± 1.3 |  | 
CN(C)C(=S)SSC(=S)N(C)C [Compound 8, Thiram] | 2.93 ± 0.11 | 0.78 ± 0.029 | 7.01 ± 0.29 | ≤ 45 | stability of covalent complex with LdtMt2 (LdtMt2 [2]): a small amount of unbound protein was observed
O=[Se](O)c1ccccc1 [Compound 7, PhSe(O)OH] | 136 ± 17 | 93.2 ± 9.3 | 309 ± 7 |  | 
c1ccc(SSc2ccccn2)nc1 [Compound 9, Aldrithiol] | 5.35 ± 0.21 | 1.61 ± 0.03 | 22.1 ± 0.7 | ≤ 10 | 
O=C1C=CC(=O)N1 [Compound 3, Maleimide] |  |  |  | > 82 | IC50 (LdtMt2 [1]; IC50 (μM, mean ± SD) 0 min): 158 ± 9 µM; IC50 (LdtMt2 [1]; IC50 (μM, mean ± SD) 10 min): 48.3 ± 3.6 µM; IC50 (LdtMt2 [1]; IC50 (μM, mean ± SD) 60 min): 18.6 ± 0.7 µM
CCC(C)SSc1ncc[nH]1 (stereo not drawn) [Compound 10, PX-12] | 9.56 ± 0.25 | 2.48 ± 0.1 | 27.2 ± 0.5 |  | 
Cl[Se]c1ccccc1 [Compound 6, PhSeCl] | 24.6 ± 0.9 | 20 ± 1.2 | 62.8 ± 2.2 |  | 
O=c1c2ccccc2[se]n1-c1ccccc1 [Compound 4, Ebselen] | 0.159 ± 0.077 | 0.143 ± 0.014 | 0.36 ± 0.02 | ≤ 1 | 
C[C@@H](O)[C@H]1C(=O)N2C(C(=O)O)=C([C@H]3CCCO3)S[C@H]12 [Compound 11, Faropenem] |  |  |  |  | stability of covalent complex with LdtMt2 (LdtMt2 [2]): a small amount of unbound protein was observed
NC(=O)CI [Compound 2, Iodoacetamide] |  |  | 129 ± 14 |  | IC50 (LdtMt2 [1]; read-out: IC50 (μM, mean ± SD) 10 min, 10 min pre-incubation prior to addition of fluorogenic probe 1, LdtMt2 100 nM, probe 1 25 μM): 32.5 ± 1.4 µM; IC50 (LdtMt2 [1]; read-out: IC50 (μM, mean ± SD) 60 min, LdtMt2 100 nM, probe 1 25 μM): 10.1 ± 0.7 µM
